Here are results for 15 molecules from article PMC12368479, “Inhibition of the Clathrin Terminal Domain—Amphiphysin Protein–Protein Interaction. Probing the Pitstop 2 Aromatic Moiety” (Chemmedchem, 2025).

Where two headings read alike, the source gives them in different places. Bounds are passed on as bounds.

In assay [1] the test system is transferrin uptake (CME) in U2OS osteosarcoma cells. Nature of the assay: Clathrin-mediated endocytosis assay: transferrin (Tfn) uptake in U2OS cells. It counts as cell-based. Here is the method: Using our previously reported CME assay in U2OS cells, the ability of these compounds to block endocytosis was examined (Table 5 ).^[ [48], [49] ^]
CME was examined by a high‐throughput, quantitative assay for measuring transferrin (Tfn) uptake in U2OS osteosarcoma cells, based on methods described previously.^[ [48] ^]
Compounds were made up fresh from powder stock just prior to commencing the assay, and stock solutions were stored at −20 °C for several months.

The target in assay [2] is T1, full length human Dynamin I (Homo sapiens, UniProt Q05193).
T1 construct: full length human Dynamin I expressed in Sf21 insect cells; made in house; host or cells: Sf21 insect cells
T1 sequence (Q05193 1-864): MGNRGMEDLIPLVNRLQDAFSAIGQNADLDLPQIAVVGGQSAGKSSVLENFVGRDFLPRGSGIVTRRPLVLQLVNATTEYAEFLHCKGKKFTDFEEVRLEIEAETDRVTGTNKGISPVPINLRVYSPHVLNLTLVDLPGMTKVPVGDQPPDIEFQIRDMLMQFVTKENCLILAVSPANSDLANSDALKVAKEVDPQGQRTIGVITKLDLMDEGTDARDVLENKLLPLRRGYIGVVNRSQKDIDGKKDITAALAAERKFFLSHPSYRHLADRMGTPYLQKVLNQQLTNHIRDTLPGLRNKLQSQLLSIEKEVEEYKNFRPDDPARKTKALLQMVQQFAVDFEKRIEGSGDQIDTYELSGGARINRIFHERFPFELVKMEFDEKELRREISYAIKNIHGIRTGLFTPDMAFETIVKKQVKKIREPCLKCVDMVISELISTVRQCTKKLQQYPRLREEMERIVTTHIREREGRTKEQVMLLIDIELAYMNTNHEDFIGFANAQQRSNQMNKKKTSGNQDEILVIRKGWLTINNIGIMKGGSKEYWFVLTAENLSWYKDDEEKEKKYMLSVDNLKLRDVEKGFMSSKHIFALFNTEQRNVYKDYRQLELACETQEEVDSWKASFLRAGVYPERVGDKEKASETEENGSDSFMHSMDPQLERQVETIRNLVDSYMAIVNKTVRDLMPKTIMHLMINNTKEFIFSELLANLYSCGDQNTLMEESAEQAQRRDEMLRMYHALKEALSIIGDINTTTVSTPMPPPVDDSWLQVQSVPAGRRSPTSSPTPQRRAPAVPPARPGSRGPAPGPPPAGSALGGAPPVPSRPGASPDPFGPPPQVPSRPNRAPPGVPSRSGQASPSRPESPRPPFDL
Nature of the assay: Dynamin GTPase activity, Malachite Green phosphate detection assay. It counts as biochemical. The protocol: Dynamin GTPase activity was determined in vitro using the Malachite Green phosphate detection absorbance‐based assay within a 96‐well plate format as described previously. The enzyme source was full length human Dynamin I expressed in Sf21 insect cells and affinity‐purified on GST‐Amph2‐SH3 (rat Amphiphysin 2 (494–588)).^[ [56] ^]

Assay [3] concerns the target T2, clathrin heavy chain NTD (amino acids 1–364) – amphiphysin 1 B/C domain protein–protein interaction (NTD‐PPI) (Homo sapiens, UniProt Q00610).
T2 construct: GST‐tagged clathrin heavy chain NTD (amino acids 1–364); made in house
T2 sequence (Q00610 1-364): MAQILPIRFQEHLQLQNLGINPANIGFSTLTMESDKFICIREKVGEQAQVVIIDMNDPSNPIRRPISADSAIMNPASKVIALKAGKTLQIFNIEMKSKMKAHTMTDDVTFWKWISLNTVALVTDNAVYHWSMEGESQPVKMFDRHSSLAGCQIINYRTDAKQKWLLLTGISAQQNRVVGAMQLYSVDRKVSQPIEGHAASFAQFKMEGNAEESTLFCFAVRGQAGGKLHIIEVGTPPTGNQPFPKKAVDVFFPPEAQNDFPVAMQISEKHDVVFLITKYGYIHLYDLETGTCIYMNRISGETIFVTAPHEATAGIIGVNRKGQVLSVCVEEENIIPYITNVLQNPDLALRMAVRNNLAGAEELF
Nature of the assay: ELISA-based clathrin inhibitor binding assay (NTD-PPI). The protocol:
The clathrin inhibitor assay was based inhibition of protein–protein interaction (PPI) between clathrin and amphiphysin as described in our previous report.^[ [45], [54] ^] Bacterially expressed recombinant purified His6‐tagged amphiphysin 1 B/C domain (which comprises both the clathrin and the AP‐2 binding sites, amino acids 250‐578^[ [55] ^]) in screening buffer (20 mM HEPES, pH 7.4, 50 mM NaCl, 1 mM DTT, 1 mM PMSF) was added to a 384 well ELISA plate (Corning Maxisorp 3700) and bound to the plastic for 1 h at room temperature. […] Following extensive washes (with 20 mM HEPES, pH 7.4, 50 mM NaCl, 0.05% Tween 20), chemical compounds diluted in DMSO (10 μL) were added and incubated together with bacterially expressed recombinant GST‐tagged clathrin heavy chain NTD (amino acids 1–364) for 1 h at room temperature in screening buffer. After 3 washes, horseradish peroxidase‐coupled anti‐GST antibodies were added in screening buffer and the plate incubated for 40 min at room temperature. Following additional washes, 50 μL TMB (3,3′,5,5′‐tetramethylbenzidine) (Pierce Biotechnology) chromogenic substrate of horseradish peroxidase was added, and the plate was incubated for 10 min before the reaction was terminated by adding 50 μL 1N sulfuric acid to produce a yellow colour. The amount of bound protein was determined by spectrophotometric measurement in a plate reader. Relative binding was calculated as a percentage of DMSO control.

Setting [4] is: Table 4, library 4, n = 1 or n = 2 as footnoted, '–' = not active at 100 μM, read-out: Dynamin 1 IC50.
Where [5] appears, read: Homo sapiens, U2OS, Table 5, inhibition of transferrin‐red uptake in U2OS cells, '–'/NA = not active at 100 μM.
The mark [6] stands for this setting: Table 4, library 4, ELISA, average of duplicate measurements (n = 2), read-out: NTD‐PPI IC50.
The mark [7] stands for this setting: Table 5, ELISA, read-out: NTD‐PPI IC50.
[8] abbreviates: Table 2, library 2, ELISA, average of duplicate measurements (n=2), read-out: NTD‐PPI IC50.
Setting [9] is: Table 2, library 2, n = 3, triplicate, '–' = not active at 100 μM, read-out: Dyn 1 IC50.
[10] abbreviates: Table 1, library 1, ELISA, average of duplicate measurements (n=2), read-out: NTD‐PPI IC50.
Where [11] appears, read: Table 1, library 1, n = 1 unless noted (19: n = 2), '–' = not active at 150 μM, read-out: Dyn 1 IC50.

Take `O=C1N=C(NS(=O)(=O)c2cccc3ccccc23)S/C1=C\C1=Cc2ccccc2OC1` [compound 55, (Z)‐N‐(5‐((2H‐chromen‐3‐yl)methylene)‐4‐oxo‐4,5‐dihydrothiazol‐2‐yl)naphthalene‐1‐sulfonamide]: the inhibition (as a rule, the share of the control response that was lost under treatment) at 5 µM in assay [1] (Homo sapiens, U2OS, read-out: 2-point CME (% Inhibition) 5 µM) stood at 0%. Also, the inhibition at 50 µM in assay [1] (Homo sapiens, U2OS, read-out: 2-point CME (% Inhibition) 50 µM) came out at 40%. The IC50 (usually the concentration that gives 50% inhibition) in assay [2] (setting [4]) amounted to 69.3 ± 7.1 µM; in assay [2] (values quoted in running text (section 2.2), read-out: Dynamin IC50), 69 µM.
As for `O=C1N=C(NS(=O)(=O)c2cccc3ccccc23)S/C1=C\c1ccc2nsnc2c1` [compound 58, (Z)‐N‐(5‐(benzo[c][1,2,5]thiadiazol‐5‐ylmethylene)‐4‐oxo‐4,5‐dihydrothiazol‐2‐yl)naphthalene‐1‐sulfonamide], the IC50 is 16.8 ± 7.9 µM in assay [1] (setting [5]); about 69.3 µM in assay [2] (setting [4]); about 69.3 µM in assay [2] (Table 5, dynamin GTPase, n = 1 or n = 2 as footnoted, NA = not active at 100 μM, read-out: Dynamin 1 IC50). Further, the “CME activity compared with Pitstop 2” value in assay [1] (U2OS cells, in words) was “comparable”.
Regarding `O=C1N=C(NS(=O)(=O)c2cccc3ccccc23)S/C1=C\c1cc[nH]c1` [compound 45, (Z)‐N‐(5‐((1H‐pyrrol‐3‐yl)methylene)‐4‐oxo‐4,5‐dihydrothiazol‐2‐yl)naphthalene‐1‐sulfonamide], the IC50 was 3 µM in assay [3] (setting [6]); 3 µM in assay [3] (setting [7]); 33 µM in assay [3] (read-out: NTD‐PPI IC50 (ELISA)); about 108 µM in assay [1] (setting [5]); over 50 µM in assay [1] (Homo sapiens, U2OS, U2OS cells).
Consider `CN1CCOc2cc(/C=C3\SC(NS(=O)(=O)c4cccc5ccccc45)=NC3=O)ccc21` [compound 53, (Z)‐N‐(5‐((4‐methyl‐3,4‐dihydro‐2H‐benzo[b][1,4]oxazin‐7‐yl)methylene)‐4‐oxo‐4,5‐dihydrothiazol‐2‐yl)naphthalene‐1‐sulfonamide], for which the “NTD‐PPI activity relative to 54” value in assay [3] (ELISA, in words) is listed as “threefold less active”. Besides, the IC50 was 3.3 µM in assay [3] (setting [6]), under 5 µM in assay [3] (read-out: NTD‐PPI IC50 (ELISA)) and 100.7 ± 1 µM in assay [2] (setting [4]).
As to `O=C1N=C(NS(=O)(=O)c2cccc3ccccc23)S/C1=C\c1ccsc1` [compound 44, (Z)‐N‐(4‐oxo‐5‐(thiophen‐3‐ylmethylene)‐4,5‐dihydrothiazol‐2‐yl)naphthalene‐1‐sulfonamide], in assay [1] (setting [5]), the IC50 is 36.4 ± 13.7 µM.
With `O=C1N=C(NS(=O)(=O)c2cccc3ccccc23)S/C1=C\c1cccc(O)c1O` [compound 24, (Z)‐N‐(5‐(2,3‐dihydroxybenzylidene)‐4‐oxo‐4,5‐dihydrothiazol‐2‐yl)naphthalene‐1‐sulfonamide], the “fold less active (NTD‐PPI) than 25 and 27” value in assay [3] (ELISA, relative to 2,4‐dihydroxyphenyl 25 and 3,4‐dihydroxyphenyl 27) is listed as 3 fold. The figures for the IC50 in assay [3] (setting [8]) and in assay [2] (setting [9]) were 3.9 µM and 85 µM, respectively.
As to `O=C1N=C(NS(=O)(=O)c2cccc3ccccc23)S/C1=C\c1cccc(Cl)c1Cl` [compound 34, (Z)‐N‐(5‐(2,3‐dichlorobenzylidene)‐4‐oxo‐4,5‐dihydrothiazol‐2‐yl)naphthalene‐1‐sulfonamide], the IC50 was 26.1 µM in assay [3] (setting [8]) and over 100 µM in assay [2] (setting [9]).
Turning to `O=C1N=C(NS(=O)(=O)c2cccc3ccccc23)S/C1=C\c1ccc(Cl)o1` [compound 49, (Z)‐N‐(5‐((5‐chlorofuran‐2‐yl)methylene)‐4‐oxo‐4,5‐dihydrothiazol‐2‐yl)naphthalene‐1‐sulfonamide], the IC50 is 3.31 µM in assay [3] (setting [6]); 3.31 µM in assay [3] (setting [7]); 3.3 µM in assay [3] (read-out: NTD‐PPI IC50 (ELISA)); 52.6 ± 9.1 µM in assay [1] (setting [5]); over 50 µM in assay [1] (Homo sapiens, U2OS, U2OS cells).
On to `N#Cc1cccc(/C=C2\SC(NS(=O)(=O)c3cccc4ccccc34)=NC2=O)c1` [compound 12, (Z)‐N‐(5‐(3‐cyanobenzylidene)‐4‐oxo‐4,5‐dihydrothiazol‐2‐yl)naphthalene‐1‐sulfonamide], for which the results for the half-maximal inhibitory concentration (IC50) in assay [3] (setting [10]) and in assay [2] (setting [11]) were 5.7 µM and over 150 µM, respectively.
As for `O=C1N=C(NS(=O)(=O)c2cccc3ccccc23)S/C1=C\c1ccc(Cl)c(Cl)c1` [compound 36, (Z)‐N‐(5‐(3,4‐dichlorobenzylidene)‐4‐oxo‐4,5‐dihydrothiazol‐2‐yl)naphthalene‐1‐sulfonamide], the half-maximal inhibitory concentration (IC50) in assay [3] (setting [8]) amounted to 4.1 µM; in assay [2] (setting [9]), 95.1 ± 7.4 µM.
`O=C1N=C(NS(=O)(=O)c2cccc3ccccc23)S/C1=C\c1ccc(Br)o1` [compound 50, (Z)‐N‐(5‐((5‐bromofuran‐2‐yl)methylene)‐4‐oxo‐4,5‐dihydrothiazol‐2‐yl)naphthalene‐1‐sulfonamide] had an IC50 in assay [1] (setting [5]) of 42.3 ± 25.7 µM.
For the molecule `O=C1N=C(NS(=O)(=O)c2cccc3ccccc23)S/C1=C\c1ccc(Cl)cc1Cl` [compound 35, (Z)‐N‐(5‐(2,4‐dichlorobenzylidene)‐4‐oxo‐4,5‐dihydrothiazol‐2‐yl)naphthalene‐1‐sulfonamide], the IC50 in assay [3] (setting [8]) came to 1.5 µM; in assay [2] (setting [9]), 66.8 µM.
Regarding `O=C1N=C(NS(=O)(=O)c2cccc3ccccc23)S/C1=C\c1ccoc1` [compound 46, (Z)‐N‐(5‐(furan‐3‐ylmethylene)‐4‐oxo‐4,5‐dihydrothiazol‐2‐yl)naphthalene‐1‐sulfonamide], the IC50 in assay [3] (setting [6]) turned out to be 2.11 µM; in assay [3] (setting [7]) it was 2.11 µM; in assay [1] (setting [5]), 31.5 ± 9.2 µM.
For `O=C1N=C(NS(=O)(=O)c2cccc3ccccc23)S/C1=C\c1ccc(CO)o1` [compound 51, (Z)‐N‐(5‐((5‐(hydroxymethyl)furan‐2‐yl)methylene)‐4‐oxo‐4,5‐dihydrothiazol‐2‐yl)naphthalene‐1‐sulfonamide], the “NTD‐PPI activity relative to halogenated furans (49, 50)” value in assay [3] (ELISA, in words) is “threefold less active”. Further, the half-maximal inhibitory concentration (IC50) was 6.33 µM in assay [3] (setting [6]); 6.33 µM in assay [3] (setting [7]); 6.3 µM in assay [3] (read-out: NTD‐PPI IC50 (ELISA)); about 156 µM in assay [1] (setting [5]); over 50 µM in assay [1] (Homo sapiens, U2OS, U2OS cells).
`O=C1N=C(NS(=O)(=O)c2cccc3ccccc23)S/C1=C\c1ccccc1O` [compound 8, (Z)‐N‐(5‐(2‐hydroxybenzylidene)‐4‐oxo‐4,5‐dihydrothiazol‐2‐yl)naphthalene‐1‐sulfonamide]: the IC50 was 2.1 µM in assay [3] (setting [10]) and over 150 µM in assay [2] (setting [11]).
